Source: PubChem BioAssay (NCI)
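How tested: cells in 96-well plates exposed to compound for 48 hours at five concentrations. TGI: concentration producing complete growth inhibition.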

Legend:
Experiment in all cases: NCI anticancer screen, dose series, 48 h
[1] = system: 786-0 renal
[2] = system: LXFL 529 NSCLC
[3] = system: RXF-631 renal

Measured: TGI

CC(N)Cc1cccc(C(F)(F)F)c1 (stereo not drawn)
> 100 µM: [1] | [2] | [3]
